Results as given in patent US9862749B2, “Analogue peptide CMA3 derived from CM-MA peptide and use thereof” (Industry-Academic Cooperation Foundation, Chosun University, priority 2014, dated 2018).
Values after ≈ are worked out from the molar mass of the structure shown. Peptide text beside a SMILES is read from it.

How the values were obtained:
Format in all cases: cell-based
in vitro = settings: human, HaCaT cells (human keratinocyte cell line)
Procedure: To investigate the cytotoxicity of each peptide prepared by the method of Example 1 to human keratinocyte cell line (HaCaT cell line, Dr. N E. Fusenig, Heidelberg, Germany) was measured.
Particularly, the HaCaT cell line cultured in DMEM supplemented with 10% FBS (Fetal Bovine Serum) was distributed in a 96-well plate at the density of 3×10^3 cells/well, followed by culture for 24 hours. The CM-MA, CMA1, CMA2, CMA3, CMA4, CMA5, or CMA6 peptide prepared in Example 1 was treated to each well at the concentration of 12.5, 25.0, 50.0, 100.0, or 200.0 μM/well, followed by reaction in a 5% CO2 incubator for 24 hours. Upon completion of the culture, 20 ul of the reaction solution containing 5 mg/ml MTT (Thiazolyl Blue Tetrazolium Bromide) dissolved in PBS (phosphate buffered saline) was added to each well, followed by reaction for 4 hours. Then, the supernatant was eliminated.

Salmonella typhimurium = settings: 12 h
Procedure: (§1) To compare the antibacterial activities among those peptides prepared by the method of Example 1 of the invention, the inventors measured MIC (minimal inhibitory concentration) of the peptide which is the minimum concentration for staying without being broken.
(§2) Particularly, the strains listed in Table 2 were purchased and cultured in each medium composed as instructed until the mid-log phase. The cells were diluted at the density of 5×10^5 cells/100 μl, which were then inoculated in a micro-titrate plate (Nunc, USA). Then, the CMA1, CMA2, CMA3, CMA4, CMA5, or CMA6 peptide synthesized in Example 1 was ½ fold diluted in each 96 well plate, and then added to the plate, followed by culture at 37° C. for 12 hours. OD620 was measured with a micro-titrate plate reader (Merck Elisa reader, Germany) to determine MIC for each strain. As for the control, the mother peptide CM-MA was treated by the same manner as described above and MIC was also determined.

[1] = tested on: Staphylococcus epidermidis; settings: 12 h
Procedure: as §1, §2

Pseudomonas aeruginosa = settings: 12 h
Procedure: as §1, §2

Escherichia coli = settings: 12 h
Procedure: as §1, §2

Staphylococcus aureus = settings: 12 h
Procedure: as §1, §2

Listeria monocytogenes = settings: 12 h
Procedure: as §1, §2

Row | Compound | viability at 24 h, 200 µM (in vitro) [%] | Minimal inhibitory concentration (Salmonella typhimurium) [µM] | Minimal inhibitory concentration [1] [µM] | Minimal inhibitory concentration (Pseudomonas aeruginosa) [µM] | Minimal inhibitory concentration (Escherichia coli) [µM] | Minimal inhibitory concentration (Staphylococcus aureus) [µM] | Minimal inhibitory concentration (Listeria monocytogenes) [µM]
1 | CC[C@H](C)[C@H](NC(=O)CNC(=O)[C@@H](NC(=O)[C@H](CCCCN)NC(=O)[C@H](CCCCN)NC(=O)[C@H](CC(C)C)NC(=O)[C@H](Cc1c[nH]cn1)NC(=O)[C@H](CCCCN)NC(=O)[C@H](Cc1c[nH]c2ccccc12)NC(=O)[C@@H](N)CCCCN)[C@@H](C)CC)C(=O)NCC(=O)N[C@@H](CCCCN)C(=O)N[C@@H](Cc1ccccc1)C(=O)N[C@@H](CC(C)C)C(=O)N[C@@H](CO)C(=O)N[C@@H](C)C(=O)N[C@@H](Cc1c[nH]cn1)C(=O)N[C@@H](CCCCN)C(=O)N[C@@H](CCCCN)C(=O)N[C@@H](Cc1ccccc1)C(N)=O [CMA4] (H-KWKHLKKIGIGKFLSAHKKF-NH2) | 64.5 | 1 (≈ 2.39 µg/mL) | 32 (≈ 76.6 µg/mL) | 16 (≈ 38.3 µg/mL) | 4 (≈ 9.58 µg/mL) | 32 (≈ 76.6 µg/mL) | 2 (≈ 4.79 µg/mL)
2 | CC[C@H](C)[C@H](NC(=O)CNC(=O)[C@@H](NC(=O)[C@H](CCCCN)NC(=O)[C@H](CCCCN)NC(=O)[C@H](Cc1ccccc1)NC(=O)[C@H](CC(C)C)NC(=O)[C@H](CCCCN)NC(=O)[C@H](Cc1c[nH]c2ccccc12)NC(=O)[C@@H](N)CCCCN)[C@@H](C)CC)C(=O)NCC(=O)N[C@@H](CCCCN)C(=O)N[C@@H](Cc1ccccc1)C(=O)N[C@@H](CC(C)C)C(=O)N[C@@H](CCC(N)=O)C(=O)N[C@@H](CO)C(=O)N[C@@H](C)C(=O)N[C@@H](CCCCN)C(=O)N[C@@H](CCCCN)C(=O)N[C@@H](Cc1ccccc1)C(N)=O [CMA6] (H-KWKLFKKIGIGKFLQSAKKF-NH2; N-terminus assumed) |  | 1 (≈ 2.4 µg/mL) | 8 (≈ 19.2 µg/mL) | 4 (≈ 9.58 µg/mL) | 4 (≈ 9.58 µg/mL) | 16 (≈ 38.3 µg/mL) | 1 (≈ 2.4 µg/mL)
3 | CC[C@H](C)[C@H](NC(=O)CNC(=O)[C@@H](NC(=O)[C@H](CCCCN)NC(=O)[C@H](CCCCN)NC(=O)[C@H](Cc1ccccc1)NC(=O)[C@H](CC(C)C)NC(=O)[C@H](CCCCN)NC(=O)[C@H](Cc1c[nH]c2ccccc12)NC(=O)[C@@H](N)CCCCN)[C@@H](C)CC)C(=O)NCC(=O)N[C@@H](CCCCN)C(=O)N[C@@H](Cc1ccccc1)C(=O)N[C@@H](CC(C)C)C(=O)N[C@@H](Cc1c[nH]cn1)C(=O)N[C@@H](CO)C(=O)N[C@@H](C)C(=O)N[C@@H](CCCCN)C(=O)N[C@@H](CCCCN)C(=O)N[C@@H](Cc1ccccc1)C(N)=O [CA-MA, reference compound] (H-KWKLFKKIGIGKFLHSAKKF-NH2) | 1.4 | 1 (≈ 2.4 µg/mL) | 8 (≈ 19.2 µg/mL) | 1 (≈ 2.4 µg/mL) | 2 (≈ 4.81 µg/mL) | 8 (≈ 19.2 µg/mL) | 0.5 (≈ 1.2 µg/mL)
4 | CC[C@H](C)[C@H](NC(=O)CNC(=O)[C@@H](NC(=O)[C@H](CCCCN)NC(=O)[C@H](CCCCN)NC(=O)[C@H](Cc1ccccc1)NC(=O)[C@H](CC(C)C)NC(=O)[C@H](CCCCN)NC(=O)[C@H](Cc1c[nH]c2ccccc12)NC(=O)[C@@H](N)CCCCN)[C@@H](C)CC)C(=O)NCC(=O)N[C@@H](CCCCN)C(=O)N[C@@H](Cc1c[nH]cn1)C(=O)N[C@@H](Cc1ccccc1)C(=O)N[C@@H](CC(C)C)C(=O)N[C@@H](CO)C(=O)N[C@@H](C)C(=O)N[C@@H](CCCCN)C(=O)N[C@@H](CCCCN)C(=O)N[C@@H](Cc1ccccc1)C(N)=O [CMA1] (H-KWKLFKKIGIGKHFLSAKKF-NH2) | 51.1 | 1 (≈ 2.4 µg/mL) | 32 (≈ 76.9 µg/mL) | 8 (≈ 19.2 µg/mL) | 8 (≈ 19.2 µg/mL) | 16 (≈ 38.5 µg/mL) | 4 (≈ 9.62 µg/mL)
5 | CC[C@H](C)[C@H](NC(=O)CNC(=O)[C@@H](NC(=O)[C@H](CCCCN)NC(=O)[C@H](CCCCN)NC(=O)[C@H](CC(C)C)NC(=O)[C@H](Cc1c[nH]cn1)NC(=O)[C@H](CCCCN)NC(=O)[C@H](Cc1c[nH]c2ccccc12)NC(=O)[C@@H](N)CCCCN)[C@@H](C)CC)C(=O)NCC(=O)N[C@@H](CCCCN)C(=O)N[C@@H](Cc1c[nH]cn1)C(=O)N[C@@H](Cc1ccccc1)C(=O)N[C@@H](CC(C)C)C(=O)N[C@@H](CO)C(=O)N[C@@H](C)C(=O)N[C@@H](CCCCN)C(=O)N[C@@H](CCCCN)C(=O)N[C@@H](Cc1ccccc1)C(N)=O [CMA5] (H-KWKHLKKIGIGKHFLSAKKF-NH2) | 78.9 | 1 (≈ 2.39 µg/mL) | 64 (≈ 153 µg/mL) | 16 (≈ 38.3 µg/mL) | 8 (≈ 19.2 µg/mL) | 32 (≈ 76.6 µg/mL) | 2 (≈ 4.79 µg/mL)
6 | CC[C@H](C)[C@H](NC(=O)CNC(=O)[C@@H](NC(=O)[C@H](CCCCN)NC(=O)[C@H](CCCCN)NC(=O)[C@H](Cc1ccccc1)NC(=O)[C@H](CC(C)C)NC(=O)[C@H](CCCCN)NC(=O)[C@H](Cc1c[nH]c2ccccc12)NC(=O)[C@@H](N)CCCCN)[C@@H](C)CC)C(=O)NCC(=O)N[C@@H](CCCCN)C(=O)N[C@@H](Cc1ccccc1)C(=O)N[C@@H](CC(C)C)C(=O)N[C@@H](CO)C(=O)N[C@@H](C)C(=O)N[C@@H](Cc1c[nH]cn1)C(=O)N[C@@H](CCCCN)C(=O)N[C@@H](CCCCN)C(=O)N[C@@H](Cc1ccccc1)C(N)=O [CMA2] (H-KWKLFKKIGIGKFLSAHKKF-NH2) |  | 1 (≈ 2.4 µg/mL) | 16 (≈ 38.5 µg/mL) | 4 (≈ 9.62 µg/mL) | 2 (≈ 4.81 µg/mL) | 32 (≈ 76.9 µg/mL) | 1 (≈ 2.4 µg/mL)
7 | CC[C@H](C)[C@H](NC(=O)CNC(=O)[C@@H](NC(=O)[C@H](Cc1c[nH]cn1)NC(=O)[C@H](CCCCN)NC(=O)[C@H](CCCCN)NC(=O)[C@H](CC(C)C)NC(=O)[C@H](CCCCN)NC(=O)[C@H](Cc1c[nH]c2ccccc12)NC(=O)[C@@H](N)CCCCN)[C@@H](C)CC)C(=O)NCC(=O)N[C@@H](CCCCN)C(=O)N[C@@H](Cc1c[nH]cn1)C(=O)N[C@@H](Cc1ccccc1)C(=O)N[C@@H](CC(C)C)C(=O)N[C@@H](CO)C(=O)N[C@@H](C)C(=O)N[C@@H](CCCCN)C(=O)N[C@@H](CCCCN)C(=O)N[C@@H](Cc1ccccc1)C(N)=O [CMA3] (H-KWKLKKHIGIGKHFLSAKKF-NH2; N-terminus assumed) | 92.4 | 1 (≈ 2.39 µg/mL) | 64 (≈ 153 µg/mL) | 8 (≈ 19.2 µg/mL) | 4 (≈ 9.58 µg/mL) | 32 (≈ 76.6 µg/mL) | 2 (≈ 4.79 µg/mL)
